Source: ChEMBL document CHEMBL4118200, “Boronic acid inhibitors of the class A β-lactamase KPC-2” (Bioorg Med Chem, 2018)
In brackets after ≈: the same amount, converted by molar mass.

Columns and labels:
[1] = Inhibition of bacterial AmpC; design: species or system Bacteria
[2] = test system: Bacteria
Description: Inhibition of bacterial beta-lactamase KPC2 expressed in Escherichia coli BL21(DE3) assessed as cefotaxime MIC at 50 ug/ml incubated for 16 hrs by broth microdilution method (Rvb = 16 ug/ml)

[3] = biological target: Metallo-beta-lactamase type 2 (Klebsiella pneumoniae) (UniProt C7C422); details: NCTC 13443
[4] = test system: Escherichia coli; experiment: microbe, parasite or virus in culture; assay type: functional; details: NCTC 10118, 16 h
[5] = test system: Klebsiella pneumoniae; details: isolate 342
[6] = biological target: Beta-lactamase (Escherichia coli) (UniProt Q7BB82); details: G69
Beta-lactamase (Escherichia coli), sequence (Q7BB82 as listed by the source): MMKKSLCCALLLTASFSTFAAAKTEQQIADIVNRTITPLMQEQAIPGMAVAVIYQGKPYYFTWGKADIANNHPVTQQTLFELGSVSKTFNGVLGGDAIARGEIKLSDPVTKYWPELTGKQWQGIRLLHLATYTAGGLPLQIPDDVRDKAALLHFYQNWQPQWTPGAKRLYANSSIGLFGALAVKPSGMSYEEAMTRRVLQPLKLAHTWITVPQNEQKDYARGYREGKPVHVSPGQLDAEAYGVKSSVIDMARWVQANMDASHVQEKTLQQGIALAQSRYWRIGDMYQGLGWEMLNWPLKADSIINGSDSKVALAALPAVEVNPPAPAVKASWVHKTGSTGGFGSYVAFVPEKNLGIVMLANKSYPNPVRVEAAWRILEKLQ

Metallo-beta-lactamase type 2 (Klebsiella pneumoniae), sequence (C7C422 whole entry): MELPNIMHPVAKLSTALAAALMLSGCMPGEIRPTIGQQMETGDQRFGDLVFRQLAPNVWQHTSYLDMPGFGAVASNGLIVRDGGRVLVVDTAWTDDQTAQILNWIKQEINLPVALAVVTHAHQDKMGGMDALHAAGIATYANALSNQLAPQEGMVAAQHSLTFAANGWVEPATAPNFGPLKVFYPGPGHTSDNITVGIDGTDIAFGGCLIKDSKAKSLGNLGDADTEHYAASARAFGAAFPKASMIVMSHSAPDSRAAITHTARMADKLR

## O=C(O)C/C=C/c1c(B(O)O)sc2ccccc12
[1]
  Ki: 90 nM

## OB(O)c1ccc(Cn2cc(-c3cccs3)nn2)cc1
[2]
  MIC: 0.12 µg/mL (≈ 0.421 µM)
[3]
  MIC: > 32 µg/mL
[4]
  MIC: ≤ 0.03 µg/mL
[5]
  MIC: > 32 µg/mL
[6]
  MIC: > 32 µg/mL

## OB(O)c1cccc(/N=N/c2cc3ccccc3cc2O)c1
[1]
  Ki: 300 nM

## OB(O)c1cccc(Cn2cc(-c3ccsc3)nn2)c1
[2]
  MIC: < 0.03 µg/mL
[3]
  MIC: > 32 µg/mL
[4]
  MIC: ≤ 0.03 µg/mL
[5]
  MIC: > 32 µg/mL
[6]
  MIC: > 32 µg/mL

## COc1ccc(-c2cn(Cc3ccc(B(O)O)cc3)nn2)cc1
[2]
  MIC: 0.06 µg/mL (≈ 0.194 µM)
[3]
  MIC: > 32 µg/mL
[4]
  MIC: ≤ 0.03 µg/mL
[5]
  MIC: > 32 µg/mL
[6]
  MIC: > 32 µg/mL

## OB(O)c1cccc(Cn2cc(-c3ccccn3)nn2)c1
[2]
  MIC: < 0.03 µg/mL
[3]
  MIC: > 32 µg/mL
[4]
  MIC: ≤ 0.03 µg/mL
[5]
  MIC: > 32 µg/mL
[6]
  MIC: > 32 µg/mL

## OB(O)c1cccc(Cn2cc(-c3cccs3)nn2)c1
[2]
  MIC: < 0.03 µg/mL
[3]
  MIC: > 32 µg/mL
[4]
  MIC: ≤ 0.03 µg/mL
[5]
  MIC: > 32 µg/mL
[6]
  MIC: > 32 µg/mL

## OB(O)c1ccc(Cn2cc(-c3ccccn3)nn2)cc1
[2]
  MIC: < 0.03 µg/mL
[3]
  MIC: > 32 µg/mL
[4]
  MIC: ≤ 0.03 µg/mL
[5]
  MIC: > 32 µg/mL
[6]
  MIC: > 32 µg/mL

## OB(O)c1cccc(Cn2cc(-c3cccnc3)nn2)c1
[2]
  MIC: < 0.03 µg/mL
[3]
  MIC: > 32 µg/mL
[4]
  MIC: ≤ 0.03 µg/mL
[5]
  MIC: > 32 µg/mL
[6]
  MIC: > 32 µg/mL

## Nc1cccc(B(O)O)c1
[1]
  Ki: 7100 nM

## OB(O)c1cccc(Cn2cc(-c3ccccc3)nn2)c1
[2]
  MIC: < 0.03 µg/mL
[3]
  MIC: > 32 µg/mL
[4]
  MIC: ≤ 0.03 µg/mL
[5]
  MIC: > 32 µg/mL
[6]
  MIC: > 32 µg/mL

## [N-]=[N+]=NCc1cccc(B(O)O)c1
[2]
  MIC: < 0.03 µg/mL
[3]
  MIC: > 32 µg/mL
[4]
  MIC: ≤ 0.03 µg/mL
[5]
  MIC: > 32 µg/mL
[6]
  MIC: 8 µg/mL (≈ 45.2 µM)

## O=C(Cc1cccs1)N[C@@H](B(O)O)c1ccccc1
[1]
  Ki: 35 nM

## OB(O)c1ccc(Cn2cc(-c3cccnc3)nn2)cc1
[2]
  MIC: < 0.03 µg/mL
[3]
  MIC: > 32 µg/mL
[4]
  MIC: ≤ 0.03 µg/mL
[5]
  MIC: > 32 µg/mL
[6]
  MIC: > 32 µg/mL

## COc1ccc(-c2cn(Cc3cccc(B(O)O)c3)nn2)cc1
[2]
  MIC: 0.12 µg/mL (≈ 0.388 µM)
[3]
  MIC: > 32 µg/mL
[4]
  MIC: ≤ 0.03 µg/mL
[5]
  MIC: > 32 µg/mL
[6]
  MIC: 32 µg/mL (≈ 104 µM)

## [N-]=[N+]=NCc1ccc(B(O)O)cc1
[2]
  MIC: < 0.03 µg/mL
[3]
  MIC: > 32 µg/mL
[4]
  MIC: ≤ 0.03 µg/mL
[5]
  MIC: > 32 µg/mL
[6]
  MIC: > 32 µg/mL

## OB(O)c1ccc(Cn2cc(-c3ccccc3)nn2)cc1
[2]
  MIC: < 0.03 µg/mL
[3]
  MIC: > 32 µg/mL
[4]
  MIC: ≤ 0.03 µg/mL
[5]
  MIC: > 32 µg/mL
[6]
  MIC: > 32 µg/mL

## OB(O)c1ccc(Cn2cc(-c3ccsc3)nn2)cc1
[2]
  MIC: < 0.03 µg/mL
[3]
  MIC: > 32 µg/mL
[4]
  MIC: ≤ 0.03 µg/mL
[5]
  MIC: > 32 µg/mL
[6]
  MIC: > 32 µg/mL
